Key:
OVA-specific IgE = assay: Serum OVA-specific IgE, anti-OVA ELISA; assay type: in vivo, BALB/cJ female mice; details: OVA+AKBA mice, 100 mg/kg AKBA; at sacrifice; p=0.3223 vs OVA control
[1] = test system: gut microbiota including Akkermansia; Bifidobacteria; details: in vitro; cited from earlier work
[2] = test system: IL-5, IL-4, IL-13, IL-10 in BAL fluid; assay: BAL fluid cytokine markers, multiplex flow-cytometry based assay; assay type: in vivo, BALB/cJ female mice; details: OVA+AKBA mice, 100 mg/kg AKBA
Text: Allergic airway phenotype was induced by using an ovalbumin (OVA, hen egg) sensitization and challenge model as previously described with modifications [Beigelman, A. et al. Azithromycin attenuates airway inflammation in a noninfectious mouse model of allergic asthma. Chest 136, 498-506 (2009)]. Briefly (FIG. 1), two groups of mice (OVA control and OVA+AKBA) were sensitized with intraperitoneal ovalbumin plus alum on days 0 and 7, challenged for 3 days (day 14 to day 17) via nebulized OVA at 1% in PBS for 30 mins, and harvested 48 hr after final challenge. Supplementation groups (OVA+AKBA) were given 100 mg/kg of water soluble AKBA (pH 7) (PLT Health Solutions, Morristown, NJ, US) in autoclaved mouse water, via gavage, every other day for 10 days and then every day for the remainder of the experiment (9 days). OVA control and naïve mouse continued to receive normal autoclaved mouse water. Mice were weighted at the beginning and end of the experiment. Experiments involving AKBA were conducted twice, with the first group containing 5 mice per group and the second containing 15 mice per group (5 per group for naive). Experiment procedures were identical, and results were pooled for n=20 (n=5 for naive). Animal protocol 102063-0522 was approved by the University of Connecticut Health IACUC board. Experiments were repeated, as stated above, with oral gavages of B. pseudolongum culture in place of AKBA supplementation. Groups were designated as OVA control (n=10), OVA+B. pseudolongum (n=10) and naïve (n=5). OVA+B. pseudolongum groups were given 10^8 CFU B. pseudolongum in culture medium via gavage, every other day for 10 days and then every day for the remainder of the experiment (9 days). Multiple inflammatory mediators were analyzed in the cell-free supernatant of BAL fluid using a multiplex flow-cytometry based assay according to manufacturer's recommendations (BioLegend, San Diego, CA, US). Volume of cell free fluid was concentrated using a 50K centrifugal filter spun at 3000 g for 10-15 minutes. Samples were run on a ZE5 Cell Analyzer (Bio-Rad, Hercules, CA, US) and sample processing was conducting using software provided from the kit's manufacturer (BioLegend, San Diego, CA, US). Serum specific ovalbumin IgE levels was detected by using an ELISA kit with a sensitivity of 3.8 ng/mL per manufacturer's protocol (Cayman Chemical Company, Ann Arbor, MI, US).

gut microbiome = assay: Gut microbiome profiling of fecal pellets by 16S rRNA sequencing; assay type: in vivo, BALB/cJ female mice
Text: Allergic airway phenotype was induced by using an ovalbumin (OVA, hen egg) sensitization and challenge model as previously described with modifications [Beigelman, A. et al. Azithromycin attenuates airway inflammation in a noninfectious mouse model of allergic asthma. Chest 136, 498-506 (2009)]. Briefly (FIG. 1), two groups of mice (OVA control and OVA+AKBA) were sensitized with intraperitoneal ovalbumin plus alum on days 0 and 7, challenged for 3 days (day 14 to day 17) via nebulized OVA at 1% in PBS for 30 mins, and harvested 48 hr after final challenge. Supplementation groups (OVA+AKBA) were given 100 mg/kg of water soluble AKBA (pH 7) (PLT Health Solutions, Morristown, NJ, US) in autoclaved mouse water, via gavage, every other day for 10 days and then every day for the remainder of the experiment (9 days). OVA control and naïve mouse continued to receive normal autoclaved mouse water. Mice were weighted at the beginning and end of the experiment. Experiments involving AKBA were conducted twice, with the first group containing 5 mice per group and the second containing 15 mice per group (5 per group for naive). Experiment procedures were identical, and results were pooled for n=20 (n=5 for naive). Animal protocol 102063-0522 was approved by the University of Connecticut Health IACUC board. Experiments were repeated, as stated above, with oral gavages of B. pseudolongum culture in place of AKBA supplementation. Groups were designated as OVA control (n=10), OVA+B. pseudolongum (n=10) and naïve (n=5). OVA+B. pseudolongum groups were given 10^8 CFU B. pseudolongum in culture medium via gavage, every other day for 10 days and then every day for the remainder of the experiment (9 days). Fresh fecal pellets were collected upon defecation and stored in sterile RNA-/DNA-/RNAse-/DNAse-free microcentrifuge tubes at the beginning and end of experiment (FIG. 1). Collected pellets were placed at −80° C. for storage following collection. DNA from pellets were extracted using the PowerSoil DNA Isolation Kit (Qiagen, Hilden, Germany) according to the manufacturer's protocol. Amplicon library preparation and V4 region of 16S rRNA gene sequencing were performed at Illumina HiSeq 4000 (Illumina, CA, US) platform. Raw 16S rRNA sequences (150-bp paired-end reads) were initially processed by BaseSpace software (Illumina, CA, US). One mismatch in primer and zero mismatch in barcodes were applied to sample deconvolution. Deconvoluted sequences were further processed using the DADA2 data processing pipeline with default parameters to obtain amplicon sequence variants (ASVs). Final taxonomic assignment was conducted using RDP-classifier (v2.11) with 0.5 confidence value as cut-off. Reads with <0.5 confidence of classification was “unclassified” at a given taxonomical level. ASV counts were converted to relative abundance and agglomerated at the phylum and genus levels using the Phyloseq R package to visualize the microbiome composition in a stacked bar plot. […] Sample reads were rarefied to 10,000 reads to account for uneven sampling depth. Alpha diversity was determined with the richness and Shannon diversity metrics at the ASV level. Wilcoxon sum rank test was performed to compare alpha diversity of stool microbiome between asthma control and AKBA treated mice at day 0 and day 19. Beta diversity was visualized by principal component analysis (PCA). DESeq2, with an adjusted p value<0.05, was used for the differential taxa analysis. All plots were created with “ggplot2” and all analyses were conducted in RStudio version 4.1.0.

[3] = AKBA treated mice, baseline vs endpoint, DESeq p<0.05

In the case of CC(=O)O[C@@H]1CC[C@@]2(C)[C@@H](CC[C@]3(C)[C@@H]2C(=O)C=C2[C@@H]4[C@@H](C)[C@H](C)CC[C@]4(C)CC[C@]23C)[C@@]1(C)C(=O)O [AKBA, 3-O-acetyl-11-keto-b-boswellic acid], the “serum OVA-specific IgE” value (OVA-specific IgE) is given as 1275.98 ± 503.22 ng/mL, the “effect on certain gut microbiota including Akkermansia” value [1] is given as “selectively inhibited” and the “feeding effect on Bifidobacteria” value [1] is given as “no direct feeding effect”. For the same molecule, the “IL-10 in BAL fluid” value ([2]; not significant vs OVA control) was 19.77 ± 12.19 ng/mL, the “IL-13 in BAL fluid” value ([2]; not significant vs OVA control) was 4.15 ± 3.15 ng/mL and the “IL-5 in BAL fluid” value ([2]; p=0.0079 vs OVA control) was 31.39 ± 17.71 ng/mL. For the same molecule, the “IL-4 in BAL fluid” value ([2]; p=0.0229 vs OVA control) was 9.30 ± 6.67 ng/mL, the “change in Hyphomicrobium, Solirubrobacter and Steroidobacter” value (gut microbiome; [3]) was “decreases” and the “change in Lactiplantibacillus, Lacticaseibacillus and Turicibacter” value (gut microbiome; [3]) was “increases”. The “overall richness and Shannon diversity of gut microbiome, baseline to endpoint” value (gut microbiome; OVA+AKBA group, 100 mg/kg AKBA) was “maintained”, the “Bifidobacterium increase, fold change” value (gut microbiome; OVA+AKBA group, baseline to endpoint, Wilcoxon p=0.07 vs OVA control) was 15.94±15.84 fold and the “the 24 genera decreased in OVA control mice (Table 1): decreased in treated group” value (gut microbiome; OVA+AKBA group, baseline vs end point) was “None”. For the same molecule, the “relative abundances of Actinobacteria phyla and Bifidobacterium genus vs OVA control mice” value (gut microbiome; OVA+AKBA mice) was “significantly higher”.

Source: patent publication US12702689B2, “Anti-inflammatory compositions, and uses thereof” (P.L. THOMAS & CO., INC., priority 2022, dated 2026)
